Experimental data as given in patent US10463671B2, “Combination therapy for treating cancer” (Epizyme, Inc., priority 2013, dated 2019).

Tested on: glucocorticoid signaling genes in SU-DHL4 cells
Test: RT2 Glucocorticoid Signaling PCR array
Assay type: cell-based
Parameters: IL10 Ct Values / TNF Ct Values: unit not given here
Details: SUDHL4 cell line, 4 days

CCN(c1cc(-c2ccc(CN3CCOCC3)cc2)cc(C(=O)NCc2c(C)cc(C)[nH]c2=O)c1C)C1CCOCC1 [Compound 44]
ACTB Ct Values: 14.247 | ADARB1 Ct Values: 28.562 | AFF1 Ct Values: 25.936 | AK2 Ct Values: 20.311 | AMPD3 Ct Values: 25.553 | ANGPTL4 Ct Values: 29.825 | ANXA4 Ct Values: 28.717 | ARID5B Ct Values: 25.129 | ASPH Ct Values: 23.348 | ATF4 Ct Values: 18.778 | B2M Ct Values: 18.971 | BCL6 Ct Values: 21.075 | CEBPA Ct Values: 31.206 | CEBPB Ct Values: 23.911 | CREB1 Ct Values: 22.973 | CREB3 Ct Values: 24.566 | CREB3L4 Ct Values: 25.089 | CYB561 Ct Values: 36.737 | DDIT4 Ct Values: 21.455 | DUSP1 Ct Values: 26.325 | EDN1 Ct Values: 33.297 | EHD3 Ct Values: 25.766 | FKBP5 Ct Values: 20.494 | FOSL2 Ct Values: 31.757 | GAPDH Ct Values: 15.835 | GDPD1 Ct Values: 28.134 | GHRHR Ct Values: 37.623 | GLUL Ct Values: 35.795 | GOT1 Ct Values: 22.607 | H6PD Ct Values: 25.743 | HAS2 Ct Values: 35.628 | HNRPLL Ct Values: 22.977 | HPRT1 Ct Values: 21.358 | IL6R Ct Values: 33.589 | IL10 Ct Values: 33.099 | KLF9 Ct Values: 27.456 | KLF13 Ct Values: 22.649 | MT2A Ct Values: 24.175 | NFKBIA Ct Values: 22.909 | NR3C1 Ct Values: 22.803 | PDCD7 Ct Values: 24.858 | PDP1 Ct Values: 26.112 | PER1 Ct Values: 24.926 | PER2 Ct Values: 24.371 | PIK3R1 Ct Values: 23.440 | PLEKHF1 Ct Values: 27.868 | POU2F1 Ct Values: 24.224 | POU2F2 Ct Values: 21.920 | RASA3 Ct Values: 23.207 | RGS2 Ct Values: 25.145 | RHOB Ct Values: 32.584 | RPLP0 Ct Values: 15.469 | SGK1 Ct Values: 25.808 | SLC10A6 Ct Values: 34.857 | SLC19A2 Ct Values: 27.465 | SLC22A5 Ct Values: 28.544 | SNTA1 Ct Values: 24.797 | SPHK1 Ct Values: 30.619 | SPSB1 Ct Values: 26.495 | STAT5A Ct Values: 25.174 | STAT5B Ct Values: 22.153 | TBL1XR1 Ct Values: 20.805 | TNF Ct Values: 29.337 | TNFAIP3 Ct Values: 28.521 | TSC22D3 Ct Values: 21.432 | USP2 Ct Values: 21.342 | USP54 Ct Values: 26.952 | VDR Ct Values: 28.330 | VLDLR Ct Values: 28.792 | ZFP36 Ct Values: 24.706 | ZHX3 Ct Values: 24.719 | ZNF281 Ct Values: 23.881 | AK2 ΔΔCT (compared to DMSO): −0.570 | CREB3 ΔΔCT (compared to DMSO): −0.490 | FKBP5 ΔΔCT (compared to DMSO): 0.008 | GOT1 ΔΔCT (compared to DMSO): 0.065 | TSC22D3 ΔΔCT (compared to DMSO): −0.002 | ACTB ΔCT (B2M) (normalized to B2M): −4.472 | ADARB1 ΔCT (B2M) (normalized to B2M): 8.878 | AFF1 ΔCT (B2M) (normalized to B2M): 7.118 | AK2 ΔCT (B2M) (normalized to B2M): 1.846 | AMPD3 ΔCT (B2M) (normalized to B2M): 6.024 | ANGPTL4 ΔCT (B2M) (normalized to B2M): 10.570 | ANXA4 ΔCT (B2M) (normalized to B2M): 8.217 | AQP1 ΔCT (B2M) (normalized to B2M): 14.226 | ARID5B ΔCT (B2M) (normalized to B2M): 5.748 | ASPH ΔCT (B2M) (normalized to B2M): 3.985 | ATF4 ΔCT (B2M) (normalized to B2M): 0.232 | B2M ΔCT (B2M) (normalized to B2M): 0.000 | BCL6 ΔCT (B2M) (normalized to B2M): 1.878 | CEBPA ΔCT (B2M) (normalized to B2M): 10.026 | CEBPB ΔCT (B2M) (normalized to B2M): 5.188 | CREB1 ΔCT (B2M) (normalized to B2M): 4.237 | CREB3L4 ΔCT (B2M) (normalized to B2M): 5.662 | CREB3 ΔCT (B2M) (normalized to B2M): 5.665 | CYB561 ΔCT (B2M) (normalized to B2M): 14.250 | DDIT4 ΔCT (B2M) (normalized to B2M): 3.098 | DIRAS2 ΔCT (B2M) (normalized to B2M): 14.626 | DUSP1 ΔCT (B2M) (normalized to B2M): 7.998 | EDN1 ΔCT (B2M) (normalized to B2M): 13.616 | FKBP5 ΔCT (B2M) (normalized to B2M): 3.113 | FOSL2 ΔCT (B2M) (normalized to B2M): 14.606 | GAPDH ΔCT (B2M) (normalized to B2M): −2.966 | GDPD1 ΔCT (B2M) (normalized to B2M): 8.216 | GLUL ΔCT (B2M) (normalized to B2M): 15.658 | GOT1 ΔCT (B2M) (normalized to B2M): 4.103 | H6PD ΔCT (B2M) (normalized to B2M): 6.063 | HAS2 ΔCT (B2M) (normalized to B2M): 13.205 | HNRPLL ΔCT (B2M) (normalized to B2M): 3.821 | HPRT1 ΔCT (B2M) (normalized to B2M): 2.826 | IL1RN ΔCT (B2M) (normalized to B2M): 17.503 | IL6R ΔCT (B2M) (normalized to B2M): 13.239 | IL10 ΔCT (B2M) (normalized to B2M): 12.363 | KLF9 ΔCT (B2M) (normalized to B2M): 8.013 | KLF13 ΔCT (B2M) (normalized to B2M): 4.078 | MERTK ΔCT (B2M) (normalized to B2M): 15.103 | MT2A ΔCT (B2M) (normalized to B2M): 4.766 | NFKBIA ΔCT (B2M) (normalized to B2M): 4.260 | NR3C1 ΔCT (B2M) (normalized to B2M): 4.025 | PDCD7 ΔCT (B2M) (normalized to B2M): 5.357 | PDGFRB ΔCT (B2M) (normalized to B2M): 16.449 | PDP1 ΔCT (B2M) (normalized to B2M): 6.751 | PER1 ΔCT (B2M) (normalized to B2M): 6.217 | PER2 ΔCT (B2M) (normalized to B2M): 5.647 | PIK3R1 ΔCT (B2M) (normalized to B2M): 4.859 | PLEKHF1 ΔCT (B2M) (normalized to B2M): 8.928 | POU2F1 ΔCT (B2M) (normalized to B2M): 5.110 | POU2F2 ΔCT (B2M) (normalized to B2M): 3.085 | RASA3 ΔCT (B2M) (normalized to B2M): 4.228 | RGS2 ΔCT (B2M) (normalized to B2M): 5.914 | RHOB ΔCT (B2M) (normalized to B2M): 11.328 | RHOJ ΔCT (B2M) (normalized to B2M): 19.737 | RPLP0 ΔCT (B2M) (normalized to B2M): −3.490 | SESN1 ΔCT (B2M) (normalized to B2M): 6.439 | SGK1 ΔCT (B2M) (normalized to B2M): 7.757 | SLC10A6 ΔCT (B2M) (normalized to B2M): 15.580 | SLC19A2 ΔCT (B2M) (normalized to B2M): 7.877 | SLC22A5 ΔCT (B2M) (normalized to B2M): 8.969 | SNTA1 ΔCT (B2M) (normalized to B2M): 5.666 | SPHK1 ΔCT (B2M) (normalized to B2M): 10.251 | SPSB1 ΔCT (B2M) (normalized to B2M): 6.832 | STAT5A ΔCT (B2M) (normalized to B2M): 6.005 | STAT5B ΔCT (B2M) (normalized to B2M): 3.152 | TBL1XR1 ΔCT (B2M) (normalized to B2M): 2.099 | TNF ΔCT (B2M) (normalized to B2M): 10.753 | TNFAIP3 ΔCT (B2M) (normalized to B2M): 9.051 | TSC22D3 ΔCT (B2M) (normalized to B2M): 4.628 | USP2 ΔCT (B2M) (normalized to B2M): 3.364 | USP54 ΔCT (B2M) (normalized to B2M): 15.234 | VDR ΔCT (B2M) (normalized to B2M): 8.200 | VLDLR ΔCT (B2M) (normalized to B2M): 9.068 | ZFP36 ΔCT (B2M) (normalized to B2M): 6.014 | ZHX3 ΔCT (B2M) (normalized to B2M): 5.569 | ZNF281 ΔCT (B2M) (normalized to B2M): 5.057
